IC50 data for 16 compounds are collected here from ChEMBL document CHEMBL4330058, “Discovery of novel anti-angiogenesis agents. Part 10: Multi-target inhibitors of VEGFR-2, Tie-2 and EphB4 incorporated with 1,2,3-triazol” (Eur J Med Chem, 2019).

The subject of test [1] is EA.hy 926. Nature of the test: Anti-angiogenic activity against human EAhy926 after 24 hrs by CCK-8 assay. The following applies: EA.hy 926, 24 h. The class given is functional, cell-based. On the technique in general: Tetrazolium assays rely on reduction of a dye to a coloured formazan, in cell work by metabolically active cells.
Test [2] addresses Vascular endothelial growth factor receptor 2 (Homo sapiens, UniProt P35968). Briefly: Inhibition of VEGFR2 (unknown origin) after 1 hr by ADP-Glo reagent based luminescent assay.
Test [3] has as its system MCF7. Briefly: Antiproliferative activity against human MCF7 cells.
For test [4], the system named is SMMC-7721. Briefly: Antiproliferative activity against human SMMC7721 cells.
Test [5] relates to A549. Briefly: Antiproliferative activity against human A549 cells.
In test [6] the test system is A-431. Nature of the test: Antiproliferative activity against human A431 cells.
Test [7] concerns LoVo. Briefly: Antiproliferative activity against human LoVo cells.
The test system of test [8] is PANC-1. Briefly: Antiproliferative activity against human PANC1 cells.
The subject of test [9] is HeLa. Nature of the test: Antiproliferative activity against human HeLa cells.
Test [10] concerns the target T1, Ephrin type-B receptor 4 (Homo sapiens, UniProt P54760).
T1 sequence (P54760 whole entry): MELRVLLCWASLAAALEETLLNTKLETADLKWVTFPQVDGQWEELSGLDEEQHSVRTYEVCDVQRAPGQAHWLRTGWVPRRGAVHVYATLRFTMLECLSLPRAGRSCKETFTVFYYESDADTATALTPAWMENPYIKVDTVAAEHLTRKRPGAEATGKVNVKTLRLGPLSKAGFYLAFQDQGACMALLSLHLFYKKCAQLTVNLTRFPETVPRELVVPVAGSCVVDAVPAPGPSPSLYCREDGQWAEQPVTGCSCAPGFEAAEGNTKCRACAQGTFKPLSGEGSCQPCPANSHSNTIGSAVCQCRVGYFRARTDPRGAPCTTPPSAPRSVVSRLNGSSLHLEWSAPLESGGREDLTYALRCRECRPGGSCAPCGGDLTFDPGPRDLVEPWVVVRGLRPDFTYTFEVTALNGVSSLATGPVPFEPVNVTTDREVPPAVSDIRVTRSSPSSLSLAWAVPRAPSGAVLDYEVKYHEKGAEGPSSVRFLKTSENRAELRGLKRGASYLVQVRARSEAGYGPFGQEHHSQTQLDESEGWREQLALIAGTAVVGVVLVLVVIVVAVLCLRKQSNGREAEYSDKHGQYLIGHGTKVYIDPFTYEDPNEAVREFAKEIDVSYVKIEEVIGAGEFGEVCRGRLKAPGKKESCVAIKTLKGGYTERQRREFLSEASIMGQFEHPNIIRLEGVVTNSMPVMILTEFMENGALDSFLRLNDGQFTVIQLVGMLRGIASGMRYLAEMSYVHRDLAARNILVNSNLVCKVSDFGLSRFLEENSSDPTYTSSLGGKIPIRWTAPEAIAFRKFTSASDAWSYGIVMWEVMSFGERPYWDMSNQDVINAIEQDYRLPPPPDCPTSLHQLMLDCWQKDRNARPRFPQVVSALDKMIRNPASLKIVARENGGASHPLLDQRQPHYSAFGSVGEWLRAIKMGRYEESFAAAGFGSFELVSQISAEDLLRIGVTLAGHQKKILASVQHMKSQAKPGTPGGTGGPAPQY
Nature of the test: Inhibition of EPHB4 (unknown origin) after 4 hrs by ADP-Glo reagent based luminescent assay. For orientation: ADP-Glo turns the ADP formed in a reaction into a luminescent signal.

The target of test [11] is Angiopoietin-1 receptor (Homo sapiens, UniProt Q02763). Nature of the test: Inhibition of TIE2 (unknown origin) after 4 hrs by ADP-Glo reagent based luminescent assay.
Angiopoietin-1 receptor, sequence (Q02763 whole entry): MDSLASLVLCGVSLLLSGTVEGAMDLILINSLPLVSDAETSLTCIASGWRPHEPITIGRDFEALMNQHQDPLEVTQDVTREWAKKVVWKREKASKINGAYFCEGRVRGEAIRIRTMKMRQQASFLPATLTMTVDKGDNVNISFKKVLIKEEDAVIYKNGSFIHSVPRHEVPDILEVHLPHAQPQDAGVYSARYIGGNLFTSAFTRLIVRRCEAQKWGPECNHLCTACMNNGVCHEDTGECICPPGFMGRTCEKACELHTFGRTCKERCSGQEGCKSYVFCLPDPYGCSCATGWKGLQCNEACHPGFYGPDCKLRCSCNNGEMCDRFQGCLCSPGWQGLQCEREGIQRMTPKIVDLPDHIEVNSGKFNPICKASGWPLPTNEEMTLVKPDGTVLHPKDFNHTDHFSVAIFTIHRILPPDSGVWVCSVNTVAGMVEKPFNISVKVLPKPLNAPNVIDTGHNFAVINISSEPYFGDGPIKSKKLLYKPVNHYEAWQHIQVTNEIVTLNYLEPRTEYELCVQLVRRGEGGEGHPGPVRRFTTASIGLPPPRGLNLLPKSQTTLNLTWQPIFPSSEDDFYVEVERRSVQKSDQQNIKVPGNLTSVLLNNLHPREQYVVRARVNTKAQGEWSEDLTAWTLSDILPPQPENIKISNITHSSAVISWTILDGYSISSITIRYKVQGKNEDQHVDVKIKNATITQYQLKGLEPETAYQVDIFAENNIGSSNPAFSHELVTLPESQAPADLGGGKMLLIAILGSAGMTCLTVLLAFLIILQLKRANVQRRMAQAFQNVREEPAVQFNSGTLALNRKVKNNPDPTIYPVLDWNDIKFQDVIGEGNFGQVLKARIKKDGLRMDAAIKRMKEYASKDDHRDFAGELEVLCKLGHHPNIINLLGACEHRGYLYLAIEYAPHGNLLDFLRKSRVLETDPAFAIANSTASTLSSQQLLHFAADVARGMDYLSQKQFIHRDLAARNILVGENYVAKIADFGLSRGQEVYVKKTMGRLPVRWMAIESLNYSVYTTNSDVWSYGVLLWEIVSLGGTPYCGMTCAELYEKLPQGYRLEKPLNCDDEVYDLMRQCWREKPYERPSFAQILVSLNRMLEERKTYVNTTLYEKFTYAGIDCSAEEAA

Vascular endothelial growth factor receptor 2, sequence (P35968 whole entry): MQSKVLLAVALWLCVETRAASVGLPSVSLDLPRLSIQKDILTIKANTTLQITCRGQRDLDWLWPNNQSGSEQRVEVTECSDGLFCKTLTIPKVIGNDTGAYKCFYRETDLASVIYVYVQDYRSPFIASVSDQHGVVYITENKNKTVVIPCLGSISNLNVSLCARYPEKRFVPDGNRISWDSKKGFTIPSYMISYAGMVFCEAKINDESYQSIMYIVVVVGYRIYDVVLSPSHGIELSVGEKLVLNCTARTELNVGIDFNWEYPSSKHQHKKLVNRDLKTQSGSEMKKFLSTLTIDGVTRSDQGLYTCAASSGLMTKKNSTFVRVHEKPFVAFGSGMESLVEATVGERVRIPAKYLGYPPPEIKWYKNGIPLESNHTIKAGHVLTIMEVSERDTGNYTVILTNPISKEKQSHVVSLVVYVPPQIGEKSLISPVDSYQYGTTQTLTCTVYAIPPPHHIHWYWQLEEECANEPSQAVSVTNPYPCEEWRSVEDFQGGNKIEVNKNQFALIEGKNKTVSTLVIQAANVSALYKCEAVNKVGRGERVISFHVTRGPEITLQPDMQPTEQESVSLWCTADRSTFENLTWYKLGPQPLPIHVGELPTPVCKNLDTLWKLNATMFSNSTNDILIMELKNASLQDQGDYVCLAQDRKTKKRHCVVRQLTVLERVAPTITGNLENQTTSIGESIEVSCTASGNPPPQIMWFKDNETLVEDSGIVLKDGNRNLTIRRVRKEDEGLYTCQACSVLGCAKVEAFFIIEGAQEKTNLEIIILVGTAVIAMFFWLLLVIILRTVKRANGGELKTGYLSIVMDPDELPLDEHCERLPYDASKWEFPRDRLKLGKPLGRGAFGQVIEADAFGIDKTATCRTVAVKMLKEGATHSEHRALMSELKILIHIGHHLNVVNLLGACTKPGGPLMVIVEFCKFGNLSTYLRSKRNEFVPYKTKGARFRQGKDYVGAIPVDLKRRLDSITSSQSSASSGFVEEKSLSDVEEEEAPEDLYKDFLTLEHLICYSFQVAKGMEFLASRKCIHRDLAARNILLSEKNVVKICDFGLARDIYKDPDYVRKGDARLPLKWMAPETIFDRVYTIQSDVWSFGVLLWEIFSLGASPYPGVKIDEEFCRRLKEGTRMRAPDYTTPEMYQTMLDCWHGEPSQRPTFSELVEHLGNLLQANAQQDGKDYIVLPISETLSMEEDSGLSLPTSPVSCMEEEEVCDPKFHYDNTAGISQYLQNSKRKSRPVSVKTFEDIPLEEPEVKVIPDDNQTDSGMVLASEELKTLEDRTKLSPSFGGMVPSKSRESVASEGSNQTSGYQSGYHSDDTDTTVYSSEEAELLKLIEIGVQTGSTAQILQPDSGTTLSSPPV

As a reminder, the IC50 is the point on the concentration scale where inhibition reaches its midpoint. A lower IC50 goes with inhibition by little substance. With `COc1ccc(-c2ccc(Cn3cc(-c4ccccc4F)nn3)cc2)cn1`, the IC50 was 708 µM in test [1] and over 1000 nM in test [2].

Take `COc1ccc(-c2ccc(Cn3cc(-c4cccc(N)c4)nn3)cc2)cn1`: the IC50 in [1] is 14.5 µM; in [3], 350 nM; in test [4], 240 nM; in test [5], 180 nM; in [6], 70 nM; in [7], 100 nM. Also, the IC50 in test [8] was found to be 490 nM; in [9], 290 nM.

With `FC(F)(F)c1cccc(-c2cn(Cc3ccc(-c4cccnc4)cc3)nn2)c1`, the IC50 in test [10] is over 1000 nM; in [1], 137 µM; in test [2], over 1000 nM.

With `Clc1cccc(-c2cn(Cc3ccc(-c4cccnc4)cc3)nn2)c1`, in test [1], half-maximal inhibition (IC50) required 431 µM.

For `FC(F)(F)c1ccc(-c2cn(Cc3ccc(-c4cccnc4)cc3)nn2)cc1`, the values for the IC50 in test [10], in [1] and in [11] were over 1000 nM, 170 µM and over 1000 nM, respectively.

Compound `COc1ccc(-c2ccc(Cn3cc(-c4ccc(C)cc4)nn3)cc2)cn1` displayed an IC50 in test [1] of 678 µM.

`COc1ccc(-c2ccc(Cn3cc(-c4cccc(Cl)c4)nn3)cc2)cn1` gave an IC50 in test [1] of 440 µM.

Take `Fc1ccccc1-c1cn(Cc2ccc(-c3cccnc3)cc2)nn1`: in [1], 9.28 µM corresponded to half-maximal inhibition (IC50).

`Nc1cccc(-c2cn(Cc3ccc(-c4cccnc4)cc3)nn2)c1` gave an IC50 in test [1] of 24.3 µM.

On to `COc1ccc(-c2ccc(Cn3cc(-c4ccccc4)nn3)cc2)cn1`, for which the figures for the IC50 in [10], in [1] and in test [11] were over 1000 nM, 110 µM and over 1000 nM, respectively.

In the case of `Cc1ccc(-c2cn(Cc3ccc(-c4cccnc4)cc3)nn2)cc1`, the IC50 was 6.49 µM in test [1] and over 1000 nM in [11].

Regarding `COc1ccc(-c2ccc(Cn3cc(-c4ccc(C(F)(F)F)cc4)nn3)cc2)cn1`, the IC50 in [10] was over 1000 nM; in [1], 122 µM.

The compound `c1ccc(-c2cn(Cc3ccc(-c4cccnc4)cc3)nn2)cc1` returned an IC50 in test [1] of 12.1 µM.

In the case of `COc1ccc(-c2ccc(Cn3cc(-c4cccc(C)c4)nn3)cc2)cn1`, the IC50 in [1] was 43.9 µM; in [11] it was over 1000 nM.

Regarding `Cc1cccc(-c2cn(Cc3ccc(-c4cccnc4)cc3)nn2)c1`, the IC50 in test [10] was over 1000 nM; in [1], 134 µM.

As to `CNC(=O)c1cc(Oc2ccc(NC(=O)Nc3ccc(Cl)c(C(F)(F)F)c3)cc2)ccn1` [SORAFENIB], the IC50 in [1] is 11.7 µM; in [3], 90 nM; in test [4] it was 300 nM; in [5], 80 nM; in [6], 120 nM; in [7] it was 250 nM. For the same compound, the IC50 in test [8] came to 150 nM; in test [9] it was 270 nM.
